In patent US12180193B2, “Accelerating fibrosarcoma protein degrading compounds and associated methods of use” (Arvinas Operations, Inc., priority 2020, dated 2024):

Columns and labels:
[1] = target: T1, BRAF V600E (Homo sapiens, UniProt P15056, V600E); test: Cellular assay of target protein degradation, T-Rex 293 cells stably transfected with HA-BRAF_V600E (HA immunofluorescence, high content imaging); format: cell-based; conditions: T-Rex 293 HA-BRAF V600E; for DC50: half maximal degradation, read-out: BRaf V600E DC50; for Dmax: maximum degradation observed
T1 construct: expressed in transfected cells
T1 sequence (P15056 whole entry V600E): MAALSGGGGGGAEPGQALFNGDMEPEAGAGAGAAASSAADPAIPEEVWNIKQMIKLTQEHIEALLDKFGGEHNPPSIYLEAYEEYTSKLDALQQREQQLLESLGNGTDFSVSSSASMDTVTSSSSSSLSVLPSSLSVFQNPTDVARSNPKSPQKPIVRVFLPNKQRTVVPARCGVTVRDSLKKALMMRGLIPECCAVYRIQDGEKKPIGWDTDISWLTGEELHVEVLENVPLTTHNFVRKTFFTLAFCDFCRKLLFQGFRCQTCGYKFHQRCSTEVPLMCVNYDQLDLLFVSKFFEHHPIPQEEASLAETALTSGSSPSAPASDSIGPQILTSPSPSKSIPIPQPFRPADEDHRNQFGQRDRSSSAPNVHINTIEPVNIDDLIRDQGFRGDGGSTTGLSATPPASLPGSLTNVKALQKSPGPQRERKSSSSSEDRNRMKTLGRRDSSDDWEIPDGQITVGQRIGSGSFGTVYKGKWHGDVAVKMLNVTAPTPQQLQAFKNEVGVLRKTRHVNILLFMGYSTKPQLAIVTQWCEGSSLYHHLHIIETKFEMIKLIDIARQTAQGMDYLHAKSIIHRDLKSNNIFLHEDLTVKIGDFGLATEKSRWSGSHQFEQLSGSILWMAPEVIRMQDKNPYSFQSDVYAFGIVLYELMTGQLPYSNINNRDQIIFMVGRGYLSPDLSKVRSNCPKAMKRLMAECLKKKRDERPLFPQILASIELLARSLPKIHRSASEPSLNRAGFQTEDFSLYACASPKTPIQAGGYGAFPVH
Method: Protocol for a cellular assay of target protein degradation (T-Rex 293 cells). T-Rex 293 cells were purchased from Invitrogen (#R71007), and stably transfected with a pcDNA4/TO_HA-BRAF_V600E construct, using 400 ug Zeocin for selection. V600e cells are plated in Dulbecco's Modified Eagle Medium (DMEM; Gibco #11965118) containing 10% fetal bovine serum (FBS; Gibco #16000044) and 1 ng/mL doxycycline (Selleckchem #4163) at a density of 5,000 cells/well in 50 μl on poly-D-lysine (PDL) coated, black clear bottom 96-well plates (Corning #354640) and incubated for 24 hours at 37° C. with 5% C02. The following day 50 ul of tested compound was added at 2x concentration in DMEM with a final concentration ranging from 1 μM to 0.1 nM in 0.1% dimethylsulfoxide (DMSO), and incubated for 24 hours at 37° C. with 5% CO2. At the end of the experimental treatment, the media was flicked off and cells washed once with phosphate-buffered saline (PBS)++ (PBS with CaCl and MgCl) and gently replacing with 200 μl PBS++ per well. The PBS++ was removed and 50 uL 4% paraformaldehyde (PFA; EMS #15710) in PBS++ was added, and incubate at room temperature for 15 minutes. Cells were washed once with PBS++ and 50 uL 0.1% Triton X-100 (Fisher #BP151-500) in PBS++ was added. Plate was incubate for 5 minutes at room temperature. Cells were was once with PBS++. Cells were blocked with 100 uL Licor blocking buffer (Licor #927-50000) for 1 hour at room temperature. Next, 50 uL of HA antibody (CST #3724) at 1:1000 in Licor blocking buffer was added, and the plate incubate overnight at 4° C. The plates were parafilmed to prevent evaporation. Plate was washed three times with 200 uL PBS++. Fifty microliters of HCS secondary antibody solution [1:1000 Hoechst (Invitrogen #H3570), 1:1000 phalloidin (Invitrogen #A22287) and 1:5000 Alexa fluor (Invitrogen #A11008)] was added and incubated for 1 hour. Plate was wash three times with 200 uL PBS++, and imaged on a high content reader (ImageXpress Micro XLS, Molecular Devices).
(§1) The concentration of exemplary compound that leads to half maximal degradation (DC50) as well as the maximum degradation observed (Dmax, conventionally expressed as a percentage of control), which are below in Table 2 for the exemplary compounds of Table 1.

[2] = target: T2, BRAF G466V (Homo sapiens, UniProt P15056, G466V); test: Cellular assay of target protein degradation, T-Rex 293 cells stably transfected with HA-BRAF G466V (HA immunofluorescence, high content imaging); format: cell-based; conditions: T-Rex 293 HA-BRAF G466V; for DC50: half maximal degradation, read-out: BRaf G466V DC50; for Dmax: maximum degradation observed
T2 construct: expressed in transfected cells
T2 sequence (P15056 whole entry G466V): as the sequence (P15056 whole entry V600E) above, with G466V, E600V counted along it
Method: Protocol for a cellular assay of target protein degradation (T-Rex 293 cells). T-Rex 293 cells were purchased from Invitrogen (#R71007), and stably transfected with a pcDNA4/TO_HA-BRAF G466V construct, using 400 ug Zeocin for selection. G466V cells are plated in Dulbecco's Modified Eagle Medium (DMEM; Gibco #11965118) containing 10% fetal bovine serum (FBS; Gibco #16000044) and 0.75 ng/mL doxycycline (Selleckchem #4163) at a density of 5,000 cells/well in 50 μl on poly-D-lysine (PDL) coated, black clear bottom 96-well plates (Corning #354640) and incubated for 24 hours at 37° C. with 5% CO2. The following day 50 ul of tested compound was added at 2x concentration in DMEM with a final concentration ranging from 30 nM to 3 pM in 0.1% dimethylsulfoxide (DMSO), and incubated for 24 hours at 37° C. with 5% CO2. At the end of the experimental treatment, the media was flicked off and cells washed once with phosphate-buffered saline (PBS)++ (PBS with CaCl and MgCl) and gently replacing with 200 μl PBS++ per well. The PBS++ was removed and 50 uL 4% paraformaldehyde (PFA; EMS #15710) in PBS++ was added, and incubate at room temperature for 15 minutes. Cells were washed once with PBS++ and 50 uL 0.1% Triton X-100 (Fisher #BP151-500) in PBS++ was added. Plate was incubate for 5 minutes at room temperature. Cells were was once with PBS++. Cells were blocked with 100 uL Licor blocking buffer (Licor #927-50000) for 1 hour at room temperature. Next, 50 uL of HA antibody (CST #3724) at 1:1000 in Licor blocking buffer was added, and the plate incubate overnight at 4° C. The plates were parafilmed to prevent evaporation. Plate was washed three times with 200 uL PBS++. Fifty microliters of HCS secondary antibody solution [1:1000 Hoechst (Invitrogen #H3570), 1:1000 phalloidin (Invitrogen #A22287) and 1:5000 Alexa fluor (Invitrogen #A11008)] was added and incubated for 1 hour. Plate was wash three times with 200 uL PBS++, and imaged on a high content reader (ImageXpress Micro XLS, Molecular Devices).
as §1

| Compound | DC50 [1] [µM] | Dmax [1] [%] | DC50 [2] [µM] | Dmax [2] [%] |
| --- | --- | --- | --- | --- |
| O=C1CC[C@H](NC(=O)c2ccc(N3CCC(CN4CCN(c5ccc(-c6cnc7[nH]cc(C(=O)c8c(F)ccc(NS(=O)(=O)N9CC[C@@H](F)C9)c8F)c7c6)cc5)CC4)CC3)cc2F)C(=O)N1 [Compound 339, 4-(4-{[4-(4-{3-[2,6-difluoro-3-({[(3R)-3-fluoropyrrolidin-1-yl]sulfonyl}amino)benzoyl]-1H-pyrrolo[2,3-b]pyridin-5-yl}phenyl)piperazin-1-yl]methyl}piperidin-1-yl)-N-[(3S)-2,6-dioxopiperidin-3-yl]-2-fluoorobenzamide] | 0.005 to 0.05 | 35 to 70 | 0.001 to 0.01 | > 70 |
| O=C1CC[C@H](N2Cc3cc(N4CC(CN5C[C@@H]6CN(c7ccc(-c8cnc9[nH]cc(C(=O)c%10c(F)ccc(NS(=O)(=O)N%11CC[C@@H](F)C%11)c%10F)c9c8)cc7)C[C@@H]6C5)C4)ccc3C2=O)C(=O)N1 [Compound 85, (3R)-N-[3-(5-{4-[(3aR,6aS)-5-[(1-{2-[(3S)-2,6-dioxopiperidin-3-yl]-1-oxo-2,3-dihydro-1H-isoindol-5-yl}azetidin-3-yl)methyl]-octahydropyrrolo[3,4-c]pyrrol-2-yl]phenyl}-1H-pyrrolo[2,3-b]pyridine-3-carbonyl)-2,4-difluorophenyl]-3-fluoropyrrolidine-1-sulfonamide] | < 0.005 | 35 to 70 | 0.001 to 0.01 | > 70 |
| O=C1CCC(N2Cc3cc(CCCN4CC5(C4)CN(c4ccc(-c6cnc7[nH]cc(C(=O)c8c(F)ccc(NS(=O)(=O)N9CCC(F)(F)C9)c8F)c7c6)cc4)C5)ccc3C2=O)C(=O)N1 (stereo not shown) [Compound 248, N-(3-{5-[4-(6-{3-[2-(2,6-dioxopiperidin-3-yl)-1-oxo-2,3-dihydro-1H-isoindol-5-yl]propyl}-2,6-diazaspiro[3.3]heptan-2-yl)phenyl]-1H-pyrrolo[2,3-b]pyridine-3-carbonyl}-2,4-difluorophenyl)-3,3-difluoropyrrolidine-1-sulfonamide] | 0.005 to 0.05 | 35 to 70 | 0.001 to 0.01 | > 70 |
| O=C1CC[C@@H](N2Cc3cc(N4CC[C@@H](COc5ccc(-c6cnc7[nH]cc(C(=O)c8c(F)ccc(NS(=O)(=O)N9CC[C@@H](F)C9)c8F)c7c6)cc5)C4)ccc3C2=O)C(=O)N1 [Compound 336, (3R)-N-{3-[5-(4-{[(3R)-1-{2-[(3R)-2,6-dioxopiperidin-3-yl]-1-oxo-2,3-dihydro-1H-isoindol-5-yl}pyrrolidin-3-yl]methoxy}phenyl)-1H-pyrrolo[2,3-b]pyridine-3-carbonyl]-2,4-difluorophenyl}-3-fluoropyrrolidine-1-sulfonamide] | > 0.5 | 35 to 70 | > 0.03 | – |
| O=C1CCC(N2Cc3cc(CCOCCN4CCN(c5ccc(-c6cnc7[nH]cc(C(=O)c8c(F)ccc(NS(=O)(=O)N9CC[C@@H](F)C9)c8F)c7c6)cc5)CC4)ccc3C2=O)C(=O)N1 (stereo partly drawn) [Compound 148, (3R)-N-[3-(5-{4-[4-(2-{2-[2-(2,6-dioxopiperidin-3-yl)-1-oxo-2,3-dihydro-1H-isoindol-5-yl]ethoxy}ethyl)piperazin-1-yl]phenyl}-1H-pyrrolo[2,3-b]pyridine-3-carbonyl)-2,4-difluorophenyl]-3-fluoropyrrolidine-1-sulfonamide] | 0.005 to 0.05 | 35 to 70 | 0.001 to 0.01 | > 70 |

The next lines start with the values.

| DC50 [1] [µM] | Dmax [1] [%] | DC50 [2] [µM] | Dmax [2] [%] | Compound |
| --- | --- | --- | --- | --- |
| 0.005 to 0.05 | < 35 | 0.001 to 0.01 | > 70 | O=C1CCC(N2Cc3ccc(C4CCN(CC5CCN(c6ccc(-c7cnc8[nH]cc(C(=O)c9c(F)ccc(NS(=O)(=O)N%10CC[C@@H](F)C%10)c9F)c8c7)cc6)CC5)CC4)cc3C2=O)C(=O)N1 (stereo partly drawn) [Compound 185, (3R)-N-[3-(5-{4-[4-({4-[2-(2,6-dioxopiperidin-3-yl)-3-oxo-2,3-dihydro-1H-isoindol-5-yl]piperidin-1-yl}methyl)piperidin-1-yl]phenyl}-1H-pyrrolo[2,3-b]pyridine-3-carbonyl)-2,4-difluorophenyl]-3-fluoropyrrolidine-1-sulfonamide] |
| 0.05 to 0.5 | 35 to 70 | 0.001 to 0.01 | < 35 | O=C1CCC(N2Cc3cc(C4CCN(CC5CCN(c6ccc(-c7cnc8[nH]cc(C(=O)c9c(Cl)ccc(NS(=O)(=O)N%10CC[C@@H](F)C%10)c9Cl)c8c7)cc6)CC5)CC4)ccc3C2=O)C(=O)N1 (stereo partly drawn) [Compound 268, (3R)-N-[2,4-dichloro-3-(5-{4-[4-({4-[2-(2,6-dioxopiperidin-3-yl)-1-oxo-2,3-dihydro-1H-isoindol-5-yl]piperidin-1-yl}methyl)piperidin-1-yl]phenyl}-1H-pyrrolo [2,3-b]pyridine-3-carbonyl)phenyl]-3-fluoropyrrolidine-1-sulfonamide] |
| > 0.5 | – | > 0.03 | – | CCc1ccc(NS(=O)(=O)N2CC[C@@H](F)C2)c(F)c1C(=O)c1c[nH]c2ncc(-c3ccc(N4CCC(CN5CCC(c6ccc7c(c6)CN(C6CCC(=O)NC6=O)C7=O)CC5)CC4)cc3)cc12 (stereo partly drawn) [Compound 266, (3R)-N-[3-(5-{4-[4-({4-[2-(2,6-dioxopiperidin-3-yl)-1-oxo-2,3-dihydro-1H-isoindol-5-yl]piperidin-1-yl}methyl)piperidin-1-yl]phenyl}-1H-pyrrolo[2,3-b]pyridine-3-carbonyl)-4-ethyl-2-fluorophenyl]-3-fluoropyrrolidine-1-sulfonamide] |
| > 0.5 | > 70 | 0.001 to 0.01 | 35 to 70 | O=C1CC[C@@H](N2Cc3cc(N4CCC(CN5CCN(c6ccc(-c7cnc8[nH]cc(C(=O)c9c(F)ccc(NS(=O)(=O)N%10CC[C@@H](F)C%10)c9F)c8c7)cc6)CC5)CC4)c(F)cc3C2=O)C(=O)N1 [Compound 41, (3R)-N-{3-[5-(4-{4-[(1-{2-[(3R)-2,6-dioxopiperidin-3-yl]-6-fluoro-1-oxo-2,3-dihydro-1H-isoindol-5-yl}piperidin-4-yl)methyl]piperazin-1-yl}phenyl)-1H-pyrrolo[2,3-b]pyridine-3-carbonyl]-2,4-difluorophenyl}-3-fluoropyrrolidine-1-sulfonamide] |
| 0.005 to 0.05 | 35 to 70 | 0.001 to 0.01 | > 70 | O=C1CC[C@@H](N2Cc3cc(C[C@@H](O)CN4CCC(c5ccc(-c6cnc7[nH]cc(C(=O)c8c(F)ccc(NS(=O)(=O)N9CC[C@@H](F)C9)c8F)c7c6)cc5)CC4)ccc3C2=O)C(=O)N1 [Compound 108, (3R)-N-{3-[5-(4-{1-[(2R)-3-{2-[(3R)-2,6-dioxopiperidin-3-yl]-1-oxo-2,3-dihydro-1H-isoindol-5-yl}-2-hydroxypropyl]piperidin-4-yl}phenyl)-1H-pyrrolo[2,3-b]pyridine-3-carbonyl]-2,4-difluorophenyl}-3-fluoropyrrolidine-1-sulfonamide] |
